In the assay the target is mouse Asah2 (Mus musculus, UniProt Q9JHE3). In words: fluorogenic ceramidase activity assay. The assay is classed as biochemical.

The source of these data is article PMC7946776 (Journal of immunology (Baltimore, Md. : 1950), 2021).

Chain of mouse Asah2 (Q9JHE3 whole entry): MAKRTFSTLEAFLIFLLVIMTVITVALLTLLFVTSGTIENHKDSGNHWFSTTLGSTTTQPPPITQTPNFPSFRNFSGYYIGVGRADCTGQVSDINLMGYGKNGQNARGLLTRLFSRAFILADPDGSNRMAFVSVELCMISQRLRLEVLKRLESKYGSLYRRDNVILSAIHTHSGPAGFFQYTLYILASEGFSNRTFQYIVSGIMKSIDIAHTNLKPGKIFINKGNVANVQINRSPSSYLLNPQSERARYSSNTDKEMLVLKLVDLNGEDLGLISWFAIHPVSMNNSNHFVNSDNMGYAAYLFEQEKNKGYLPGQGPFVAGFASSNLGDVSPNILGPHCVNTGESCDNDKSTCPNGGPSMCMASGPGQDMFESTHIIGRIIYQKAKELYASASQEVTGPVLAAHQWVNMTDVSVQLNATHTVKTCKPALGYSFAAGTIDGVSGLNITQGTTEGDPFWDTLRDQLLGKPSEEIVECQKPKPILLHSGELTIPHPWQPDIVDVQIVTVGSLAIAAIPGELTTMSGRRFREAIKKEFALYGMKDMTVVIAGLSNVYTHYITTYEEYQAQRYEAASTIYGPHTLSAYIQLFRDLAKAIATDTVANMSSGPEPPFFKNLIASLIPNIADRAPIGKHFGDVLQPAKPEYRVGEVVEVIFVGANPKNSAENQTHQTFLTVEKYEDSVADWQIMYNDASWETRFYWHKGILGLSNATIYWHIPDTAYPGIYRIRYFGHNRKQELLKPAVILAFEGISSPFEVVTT

As a reminder, the IC50 is the point on the concentration scale where inhibition reaches its midpoint. `O=c1nc(Nc2cccc(Cl)c2)oc2cc(Cl)oc(=O)c12` [NC06, 7-chloro-2-(3-chloroanilino)pyrano[3,4-e][1,3]oxazine-4,5-dione] returned an IC50 of 30.2 µM.
